From patent US20100119479A1, “THERAPEUTIC ANTIVIRAL PEPTIDES” (INTERMUNE, INC., priority 2008, published 2010)

Assays:
[1] = target: T1, full-length NS3/NS4A-2 (HCV NS3 protease) (Hepatitis C virus genotype 1b, UniProt Q9WMX2); assay: NS3 Inhibition Assay (NS3-NS4 protease assay, RETS1 substrate); assay type: biochemical; conditions: NS3/NS4A-2 protease
T1 construct: Recombinant E. coli or Baculovirus full-length NS3; host or cells: E. coli or baculovirus (BV) expression
Experimental: NS3 Complex Formation with NS4A-2.
Recombinant E. coli or Baculovirus full-length NS3 was diluted to 3.33 μM with assay buffer and transferred material to an eppendorf tube and placed in a water bath in a 4° C. refrigerator. The appropriate amount of NS4A-2 diluted to […] in assay buffer was added to equal the volume of NS3 above (conversion factor—3.8 mg/272 μL assay buffer). The material was transferred to an eppendorf tube and placed in water bath in a 4° C. refrigerator.
After equilibration to 4° C., equal volumes of NS3 and NS4A-2 solutions were combined in an eppendorf tube, mix gently with a manual pipettor, and incubate mixture for 15 minutes in the 4° C. water bath. Final concentrations in the mixture are 1.67 μM NS3, 4.15 mM NS4A-2 (2485-fold molar excess NS4A-2).
After 15 minutes at 4° C., the NS3/NS4A-2 eppendorf tube was removed and place it in a room temperature water bath for 10 minutes. NS3/NS4A-2 was aliquoted at appropriate volumes and store at −80° C. (E. coli NS3 run at 2 nM in assay, aliquot at 25 μL. BV NS3 run at 3 nM in assay, aliquot at 30 μL).
Step a. Sample compounds were dissolved to 10 mM in DMSO then diluted to 2.5 mM (1:4) in DMSO. Typically, compounds were added to an assay plate at 2.5 mM concentration, yielding upon dilution a starting concentration of 50 microM in the assay inhibition curve. Compounds were serial diluted in assay buffer to provide test solutions at lower concentrations.
Step b. The E. coli. NS3/NS4A-2 was diluted to 4 nM NS3 (1:417.5 of 1.67 μM stock−18 μL1.67 μM stock+7497 μL assay buffer). The BV NS3/NS4A-2 was diluted to 6 nM NS3 (1:278.3 of 1.67 μM stock−24 μL1.67 μM stock+6655 μL assay buffer).
Step c. Using the manual multichannel pipettor, and being careful not to introduce bubbles into the plate, 50 μL assay buffer were added to wells A01-H01 of a black Costar 96-well polypropylene storage plate.
Step d. Using the manual multichannel pipettor, and being careful not to introduce bubbles into the plate, 50 μL of diluted NS3/NS4A-2 from Step b were added to wells A02-H12 of the plate in Step c.
Step e. Using the manual multichannel pipettor, and being careful not to introduce bubbles into the plate, 25 μL of the wells in drug dilution plate in Step a were transferred to corresponding wells in assay plate in Step d. The tips on the multichannel pipettor were changed for each row of compounds transferred.
Step f Using the manual multichannel pipettor, and being careful not to introduce bubbles into the plate, the contentes of the wells from the assay plate in Step e were mixed by aspirating and dispensing 35 μL of the 75 μL in each well five times. The tips on multichannel pipettor were changed for each row of wells mixed.
Step g. The plate was covered with a polystyrene plate lid, and the plate from Step f containing NS3 protease and sample compounds was pre-incubated 10 minutes at room temperature.
While plate from Step g is pre-incubating, the RETS1 substrate was diluted in a 15 mL polypropylene centrifuge tube. The RETS1 substrate was diluted to 8 μM (1:80.75 of 646 μM stock—65 μL 646 μM stock+5184 μL assay buffer).
After the plate in Step g was done pre-incubating, and using the manual multichannel, 25 μL of substrate were added to all wells on the plate. The contents of the wells of the plate were quickly mixed, as in Step f, mixing 65 μL of the 100 μL in the wells.
The plate was read in kinetic mode on the Molecular Devices SpectraMax Gemini XS plate reader. Reader settings: Read time: 30 minutes, Interval: 36 seconds, Reads: 51, Excitation λ: 335 nm, Emission λ: 495 nm, cutoff: 475 nm, Automix: off, Calibrate: once, PMT: high, Reads/well: 6, Vmax pts: 21 or 28/51 depending on length of linearity of reaction
IC50s are determined using a four parameter curve fit equation, and converted to Ki's using the following Km's: […]
Full-length E. coli NS3−2.03 μM
Full-length BV NS3−1.74 μM
where Ki=IC50/(1+[S]/Km))

[2] = system: HCV sub-genomic replicon, GS4.3 (HuH-7 hepatoma cells); assay: Quantitation by ELISA of NPTII in the HCV sub-genomic replicon, GS4.3; assay type: cell-based; conditions: Hepatitis C virus, GS4.3 replicon cells, 72 h incubation
Description: Quantitation by ELISA of the Selectable Marker Protein, Neomycin Phosphotransferase II (NPTII) in the HCV Sub-Genomic Replicon, GS4.3
The HCV sub-genomic replicon (1377/NS3-3′, accession No. AJ242652), stably maintained in HuH-7 hepatoma cells, was created by Lohmann et al. Science 285: 110-113 (1999). The replicon-containing cell culture, designated GS4.3, was obtained from Dr. Christoph Seeger of the Institute for Cancer Research, Fox Chase Cancer Center, Philadelphia, Pa.
GS4.3 cells were maintained at 37° C., 5% CO2, in DMEM (Gibco 11965-092) supplemented with L-glutamine 200 mM (100×) (Gibco25030-081), non-essential amino acids (NEAA)(Biowhittaker 13-114E), heat-inactivated (HI) Fetal Bovine Serum(FBS)(Hyclone SH3007.03) and 750 μg/mL geneticin (G418)(Gibco 10131-035). Cells were sub-divided 1:3 or 4 every 2-3 days.
24 h prior to the assay, GS4.3 cells were collected, counted, and plated in 96-well plates (Costar 3585) at 7500 cells/well in […] standard maintenance medium (above) and incubated in the conditions above. To initiate the assay, culture medium was removed, cells were washed once with PBS (Gibco 10010-023) and 90 μl Assay Medium (DMEM, L-glutamine, NEAA, 10% HI FBS, no G418) was added. Inhibitors were made as a 10× stock in Assay Medium, (3-fold dilutions from 10 μM to […] final concentration, final DMSO concentration 1%), […] were added to duplicate wells, plates were rocked to mix, and incubated as above for 72 h.
An NPTII Elisa kit was obtained from AGDIA, Inc. (Compound direct ELISA test system for Neomycin Phosphotransferase II, PSP 73000/4800). Manufacturer's instructions were followed, with some modifications. 10×PEB-1 lysis buffer was made up to include 500 μM PMSF (Sigma P7626, 50 mM stock in isopropanol). After 72 h incubation, cells were washed once with PBS and […] PEB-1 with PMSF was added per well. Plates were agitated vigorously for 15 minutes, room temperature, then frozen at −70° C. Plates were thawed, lysates were mixed thoroughly, and 100 μl were applied to an NPTII Elisa plate. A standard curve was made. Lysate from DMSO-treated control cells was pooled, serially diluted with PEB-1 with PMSF, and applied to duplicate wells of the ELISA plate, in a range of initial lysate amount of 150 μL-2.5 μL. In addition, 100 μL buffer alone was applied in duplicate as a blank. Plates were sealed and gently agitated at room temperature for 2 h. Following capture incubation, the plates were washed 5×300 μL with PBS-T (0.5% Tween-20, PBS-T was supplied in the ELISA kit). For detection, a 1× dilution of enzyme conjugate diluent MRS-2 (5×) was made in PBS-T, into which 1:100 dilutions of enzyme conjugates A and B were added, as per instructions. Plates were resealed, and incubated with agitation, covered, room temperature, for 2 h. The washing was then repeated and 100 μL, of room temperature TMB substrate was added. After approximately 30 minutes incubation (room temperature, agitation, covered), the reaction was stopped with 50 μL, 3M sulfuric acid. Plates were read at 450 nm on a Molecular Devices Versamax plate reader.
Inhibitor effect was expressed as a percentage of DMSO-treated control signal, and inhibition curves were calculated using a 4-parameter equation: y=A+((B−A)/(1+((C/x)̂D))), where C is half-maximal activity or EC50.

T1 sequence (Q9WMX2 1027-1657): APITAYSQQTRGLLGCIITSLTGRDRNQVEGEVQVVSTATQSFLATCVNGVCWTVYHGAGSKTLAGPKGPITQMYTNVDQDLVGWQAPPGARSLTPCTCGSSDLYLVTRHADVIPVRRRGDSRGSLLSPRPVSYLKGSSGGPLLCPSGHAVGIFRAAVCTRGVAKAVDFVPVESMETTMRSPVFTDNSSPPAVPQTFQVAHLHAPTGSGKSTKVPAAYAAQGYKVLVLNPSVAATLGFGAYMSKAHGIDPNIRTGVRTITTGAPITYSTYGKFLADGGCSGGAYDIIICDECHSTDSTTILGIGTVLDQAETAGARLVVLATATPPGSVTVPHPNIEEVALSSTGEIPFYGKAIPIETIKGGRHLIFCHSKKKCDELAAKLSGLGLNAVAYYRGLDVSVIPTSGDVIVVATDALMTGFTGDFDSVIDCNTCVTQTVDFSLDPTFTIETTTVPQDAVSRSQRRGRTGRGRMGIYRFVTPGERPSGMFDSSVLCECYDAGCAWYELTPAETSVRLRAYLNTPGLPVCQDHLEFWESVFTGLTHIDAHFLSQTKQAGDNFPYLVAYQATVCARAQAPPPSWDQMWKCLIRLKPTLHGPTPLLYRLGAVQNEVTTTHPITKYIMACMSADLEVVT
T1 sequence (Q9WMX2 1658-1711): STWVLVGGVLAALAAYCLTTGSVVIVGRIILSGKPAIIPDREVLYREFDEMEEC

| Structure (SMILES) | IC50 [1] [nM] | EC50 [2] [nM] |
| --- | --- | --- |
| CC[C@@H]1C[C@]1(NC(=O)[C@@H]1C[C@@H](Oc2cc(-c3nc(C(C)C)cs3)nc3c(C)c(OC)ccc23)CN1C(=O)[C@@H](Nc1cccc(C(F)(F)F)c1)C(C)(C)C)C(=O)NS(=O)(=O)N(C)C [Compound 297] | < 100 | < 100 |
| CC[C@@H]1C[C@]1(NC(=O)[C@@H]1C[C@@H](OC(=O)N2Cc3cccc(F)c3C2)CN1C(=O)[C@@H](Nc1ccc(-n2cccn2)cc1)C(C)(C)C)C(=O)NS(=O)(=O)C1CC1 [Compound 16] | < 100 | 100 to 1000 |
| CC(C)(C)[C@H](Nc1cccc(C(F)(F)F)c1)C(=O)N1C[C@H](OC(=O)N2Cc3cccc(Cl)c3C2)C[C@H]1C(=O)N[C@]1(C(=O)NS(=O)(=O)C2CC2)C[C@H]1C1CC1 [Compound 293] | < 100 | < 100 |
| CC[C@@H]1C[C@]1(NC(=O)[C@@H]1C[C@@H](OC(=O)N2Cc3ccc(OC)cc3C2)CN1C(=O)[C@@H](Nc1cc(F)cc(C(F)(F)F)c1)C(C)(C)C)C(=O)NS(=O)(=O)C1(C)CC1 [Compound 291] | < 100 | < 100 |
| CC[C@@H]1C[C@]1(NC(=O)[C@@H]1C[C@@H](OC(=O)N2Cc3cccc(Cl)c3C2)CN1C(=O)[C@@H](Nc1ccc(F)c(C(F)(F)F)c1)C(C)(C)C)C(=O)NS(=O)(=O)C1(C)CC1 [Compound 284] | < 100 | < 100 |
| CC[C@@H]1C[C@]1(NC(=O)[C@@H]1C[C@@H](OC(=O)N2Cc3cccc(F)c3C2)CN1C(=O)[C@@H](Nc1ccc(C(=O)OC)cc1)C(C)(C)C)C(=O)NS(=O)(=O)C1CC1 [Compound 2] | < 100 | 100 to 1000 |
| C=C[C@@H]1C[C@]1(NC(=O)[C@@H]1Cc2cc(Oc3cccc(Cl)c3)ccc2CN1C(=O)[C@@H](Nc1cccc(C(F)(F)F)c1)C(C)(C)C)C(=O)NS(=O)(=O)C1CC1 [Compound 23] | < 100 | > 1000 |
| CC[C@@H]1C[C@]1(NC(=O)[C@@H]1C[C@@H](OC(=O)N2Cc3cccc(F)c3C2)CN1C(=O)[C@@H](Nc1cccc(COCC2(C)COC2)c1)C(C)(C)C)C(=O)NS(=O)(=O)C1CC1 [Compound 14] | < 100 | 100 to 1000 |
| CC(C)(C)[C@H](Nc1ccc(F)c(C(F)(F)F)c1)C(=O)N1C[C@H](OC(=O)N2Cc3cccc(Cl)c3C2)C[C@H]1C(=O)N[C@]1(C(=O)NS(=O)(=O)C2CC2)C[C@H]1C1CC1 [Compound 294] | < 100 | < 100 |
| CC[C@@H]1C[C@]1(NC(=O)[C@@H]1C[C@@H](OC(=O)N2Cc3cccc(F)c3C2)CN1C(=O)[C@@H](Nc1cccc(C(=O)N2CCN(C)CC2)c1)C(C)(C)C)C(=O)NS(=O)(=O)C1CC1 [Compound 8] | < 100 | > 1000 |
| CC[C@@H]1C[C@]1(NC(=O)[C@@H]1C[C@@H](Oc2cc(-c3nc(C(C)C)cs3)nc3c(C)c(OC)ccc23)CN1C(=O)[C@@H](Nc1cc(F)cc(C(F)(F)F)c1)C(C)(C)C)C(=O)NS(=O)(=O)C1CC1 [Compound 354] | < 100 | < 100 |
| C=C[C@@H]1C[C@]1(NC(=O)[C@@H]1C[C@@H](Oc2cc(-c3nc(C(C)C)cs3)nc3c(C)c(OC)ccc23)CN1C(=O)[C@@H](Nc1ccc(F)c(C(F)(F)F)c1)C(C)(C)C)C(=O)NS(=O)(=O)N(C)C [Compound 400] | < 100 | < 100 |
| C=C[C@@H]1C[C@]1(NC(=O)[C@@H]1Cc2cc(Oc3cccc(Cl)c3)ccc2CN1C(=O)[C@@H](Nc1ccc(F)cc1)C(C)(C)C)C(=O)NS(=O)(=O)C1(C)CC1 [Compound 25] | < 100 |  |
| C=C[C@@H]1C[C@]1(NC(=O)[C@@H]1Cc2cc(Oc3cccc(Cl)c3)ccc2CN1C(=O)[C@@H](Nc1cccc(C(F)(F)F)c1)C(C)(C)C)C(=O)NS(=O)(=O)C1(C)CC1 [Compound 21] | < 100 |  |
| C=C[C@@H]1C[C@]1(NC(=O)[C@@H]1Cc2cc(Oc3cccc(Cl)c3)ccc2CN1C(=O)[C@@H](Nc1ccc(F)cc1)C(C)(C)C)C(=O)NS(=O)(=O)C1CC1 [Compound 28] | 100 to 1000 |  |
| CC[C@@H]1C[C@]1(NC(=O)[C@@H]1C[C@@H](Oc2cc(-c3nc(C(C)C)cs3)nc3c(C)c(OC)ccc23)CN1C(=O)[C@@H](Nc1cc(F)cc(C(F)(F)F)c1)C(C)(C)C)C(=O)NS(=O)(=O)C1(C)CC1 [Compound 300] |  | < 100 |
| C=C[C@@H]1C[C@]1(NC(=O)[C@H]1Cc2cc(Oc3cccc(Cl)c3)ccc2CN1C(=O)[C@@H](Nc1ccc(F)cc1)C(C)(C)C)C(=O)NS(=O)(=O)C1(C)CC1 [Compound 26] | 100 to 1000 |  |
| C=C[C@@H]1C[C@]1(NC(=O)[C@@H]1Cc2cc(Oc3cccc(Cl)c3)ccc2CN1C(=O)[C@@H](Nc1ccc(F)cc1)C(C)(C)C)C(=O)NS(=O)(=O)C1CC1 [Compound 27] | < 100 |  |
